Where a name gives a salt, the structure may show the parent alone.
Assays:
[1] = Pulsatile transdermal iontophoresis of GnRH in pigs, plasma PK (Example 1); assay type: in vivo, Yorkshire pigs; settings: for plasma concentrations: condition #2 (2 mg/mL patch)
Method: (§1) Six prepubescent female Yorkshire pigs were used for this Example. A crossover design was used whereby each animal received both subcutaneous (SC) and iontophoretic treatments. Subcutaneous and iontophoresis experiments were spaced two weeks apart to meet acceptable animal blood draw limits. The subcutaneous injection experiments were performed first in the sequence. During the two week study the animal weights ranged from 15-32 kg.
The animal hair were clipped the night before the experiment. Prior to applying patches, a skin site free of obvious cuts and scrapes was selected. The selected skin site was wiped clean with warm water and an alcohol-loaded gauze pad and patted dry.
Iontophoretic hydrogel patches prepared according to Patch Fabrication Platform I (5 cm^2 active area) were used in these studies. The patches were loaded with GnRH (HCl) solution to provide final concentration of either 10 mg/mL, GnRH (HC 1) or 2 mg/mL GnRH (HCl) in the patch. The pH of the gel surface was from about 5 to about 5.5.
(§2) All animals were placed in a sling under general propofol anesthesia and jugular, ear vein and arterial catheters placed percutaneously. For subcutaneous injection studies, a venous catheter was placed against the lower abdominal wall of the animal and 20 μg of drug was injected at 90-min intervals (total 5 dosing cycles). Each drug injection was followed by saline flush. The subcutaneous injection study in each animal was followed by iontophoresis administration in the same animal two weeks later. The iontophoresis experiments also involved five dosing cycles at 90-minute intervals. The drug loaded patches were placed on the back of the animal just off the midline section.
A laboratory controller was used as a constant current source. The controller is a battery operated electrotransport controller and delivers a preprogrammed current density profile for experimental studies. In addition, the controller measures the voltage across and the current through an electrotransport patch during drug delivery. The accuracy of the delivered current is ±1% of full-scale. The controller has a maximum voltage of 35 V and can take readings once per second for up to an hour. The accuracy of the recorded current is ±1% of full-scale. The accuracy of the recorded voltage is 0.8 V Max. There are no moving parts on the controller. Infrared transmission of the delivery profile and data retrieval to a computer ensures there are no disturbances during the treatment of a subject.
Example 1 utilized a current delivery profile comprising five cycles of eight minute pulses each having a current of 1.2 mA, with rest times of 90 minutes between pulses.
(§3) Blood samples were drawn from the jugular catheter into pre-chilled 3 mL vacutainer tubes using the following protocol. The tubes contained EDTA (1 mg/mL of blood) and Aprotinin (500 KIU/mL, of blood). A 2 mL, flush volume of blood was drawn followed by a 3 mL sample. The blood samples were withdrawn as outlined in Table G below. The tubes were centrifuged within 15 min of blood collection at 1600 rpm for 15 min at 4° C. The separated plasma was split into two (approximately equal volume) 2 mL tubes and frozen on dry ice. Samples were stored at −70° C. until shipment. The samples were analyzed using an I^125 radio labeled immnunoassay.
All experimental animals were allowed to recover from anesthesia after sutaneous treatment. The jugular catheter was left over night and removed after 24 hour blood draw was complete. Immediately following the 24 hour iontophoresis blood draw, animals were euthanized. Animal 1 died seven days after subcutaneous treatment. Animals 2, 3, and 4 received iontophoresis under condition #1 and animals 5 and 6 received iontophoresis under condition #2.

in vivo = test: in vivo; parameters: species or system Yorkshire pigs; settings: pig, sc
Method: as §1
The subcutaneous dosing solutions of concentration 200 μg/mL and 400 μg/mL, were prepared in pH 5.0 water (pH of maximum stability), Pigs 1 and 2 received 50 μl of 400 μg/mL, solution, while pigs 3-6 received 100 μl of 200 μg/mL, solution for each of the 5 doses.
as §2, §3

[2] = parameters: species or system Yorkshire pigs; settings: pig, in vivo
Method: Six prepubescent female Yorkshire pigs (numbered from 7-12) were used in this set of studies. Each animal received two iontophoretic treatments. A first set of three animals received 50 mg/mL, drug concentration using five 8-min pulses (condition #3) and a week later received the same concentration using eight 5-min pulses (condition #5). A second set of three animals received 25 mg/mL drug concentration using five 8-min pulses (condition #4) and a week later received the same concentration using eight 5-min pulses (condition #6). The five 8-min pulse experiments were performed first in the sequence. During the span of the study the animal weights ranged from approximately 18-33 kg.
The animals were prepared as described in Example 1. Inotophoretic hydrogel patches prepared according to Patch Fabrication Platform I (5 cm^2 active area) were used in these studies. The patches were loaded with GnRH (HCl) solution to provide final concentration of either 25 mg/mL GnRH (HC l) or 50 mg/mL GnRH (HCl) in the patch. The pH of the gel surface was measured to be 5.0±0.5. The patches were placed on the back of the animal just off the midline section. The controller, as described in Example 1, was used. One patch each was used throughout the entire delivery period for conditions 3-5. For condition #6, the patch was replaced with a fresh patch after pulse 5. The experimental conditions are summarized in Table K. Example 2 utilized current delivery profiles comprising five cycles of eight minute pulses each having a current of 1.2 mA for conditions #3 and #4; and eight cycles of five minute pulses each having a current of 1.2 mA for conditions #5 and #6. Each profile had rest times of 90 minutes between pulses.
Blood samples were drawn from a jugular catheter at times as disclosed in Table L, and treated according to the protocol set forth in Example 1.

[3] = parameters: species or system Yorkshire pigs; settings: pig, in vivo; remark: listed apart in the source
Method: Three prepubescent female Yorkshire pigs (numbered 13-15) were used in this Example. Each animal received one iontophoretic treatment for eight 90 minute cycles and a ninth cycle with subcutaneous (“SC”) dosing for comparison. The ionotophoretic devices were prepared according to Patch Fabrication Platform I (5 cm^2 active area). The patches were loaded with GnRH (HCl) solution to provide final concentration of 25 mg/mL, GnRH. The pH of the gel surface was measured to be 5.0±0.5. The patches were stored at 5° C. at all times except during travel to the study site. The SC dosing solution used in animal 13 was prepared 4 days before use and stored at room temperature (“RT”). The SC dosing solution used in animal 14 was prepared 6 days before use and stored mainly at RT. The SC dosing solution used in animal 15 was prepared 1 day before use and stored at RT. During the study, the animal weights ranged from approximately 15-30 kg. […] The animals were prepared as described in Example 1. The drug loaded patches were placed on the back of the animal just off the midline section. One patch each was used throughout the eight delivery pulses. The controller, as described in Example 1, was used as a constant current source. Blood samples were drawn from a jugular catheter at times as disclosed in Table P, and treated according to the analytical protocol set forth in Example 1.

[4] = condition #1, animal weight normalized, pulses 1-5

## CC(C)C[C@H](NC(=O)CNC(=O)[C@H](Cc1ccc(O)cc1)NC(=O)[C@H](CO)NC(=O)[C@H](Cc1c[nH]c2ccccc12)NC(=O)[C@H](Cc1cnc[nH]1)NC(=O)[C@@H]1CCC(=O)N1)C(=O)N[C@@H](CCCNC(=N)N)C(=O)N1CCC[C@H]1C(=O)NCC(N)=O [GnRH, gonadorelin hydrochloride]
[1]; condition #1, all pulses
  ratio of the mean CV for AUC between iontophoretic and subcutaneous drug delivery: 1.9
  ratio of the mean CV for Cmax between iontophoretic and subcutaneous drug delivery: 2.0
[1]; [4]
  Mean coefficient of variation (for AUC) for iontophoretic drug delivery: 35%
  mean CV (for Cmax) for iontophoretic drug delivery: 40%
[1]; condition #1, pulse 1 excluded
  mean CV (for AUC) for iontophoretic drug delivery: 15%
  mean CV (for Cmax) for iontophoretic drug delivery: 22%
  ratio of the mean CV for AUC between iontophoretic and subcutaneous drug delivery: 0.83
  ratio of the mean CV for Cmax between iontophoretic and subcutaneous drug delivery: 1.1
[1]; condition #1 vs subcutaneous 20 μg dose, animal weight normalized
  percent difference between iontophoresis and subcutaneous means, of the subcutaneous AUC: 47%
[1]; condition #1 vs subcutaneous, animal weight normalized
  percent difference between iontophoresis and subcutaneous Cmax means, of the subcutaneous mean Cmax: 32%
[1]; animal 5, first 3 pulses
  plasma concentrations: below assay limit of detection
[1]; animal 6, first pulse
  plasma concentrations: below assay limit of detection
[1]; condition #2 vs condition #1
  Mean AUC for pulses 4 and 5, fold less than iontophoresis condition #1: 5.6 fold
  Mean Cmax for pulses 4 and 5, fold less than iontophoresis condition #1: 4.6 fold
[1]; female, Yorkshire, pig, in vivo, Tmax
  Tmax: 20 min
In vivo; female, Yorkshire, 20 ug, Subcut. AUC
  AUC: 0.742 ng·h/mL
In vivo; female, Yorkshire, Subcut Tmax
  Tmax: 19 min
In vivo; 20 ug
  Mean CV (for AUC) for subcutaneous drug delivery: 18%
  Mean CV (for Cmax) for subcutaneous drug delivery: 20%
[2]
  Mean AUC, less than for 10 mg/mL drug concentration and 8-min pulses (Example 1): 25%
  Mean Cmax, less than for 10 mg/mL drug concentration and 8-min pulses (Example 1): 25%
  drug delivery, less compared with 10 mg/mL drug concentration and 8-minute pulses: 25%
[3]
  Tmax coefficient of variation over pulses 2-8: 9%
